Experiments:
CCL2 [1] = test: CCL2 production by LPS-stimulated monocytes (ELISA); format: cell-based, human; details: 24 h-incubation
Experimental: Supernatants of untreated cells or cells treated with ecteinascidin 743 or other anti-neoplastic agents were collected after 24 h culture and frozen. Monocytes, macrophages and TAM were stimulated with 100 ng/ml LPS to induce maximal cytokine production. Determination of cytokines CCL2, TNF and IL-6 was measured by specific ELISA following the manufacturer's instructions.
Monocytes and in vitro differentiated macrophages were stimulated with LPS (100 ng/ml). After 1 h LPS stimulation they were treated with ecteinascidin 743. After 16 h incubation, cell supernatants were harvested and tested in ELISA. Under these treatment conditions cell viability was usually >85% for concentrations up to 5 nM. […] Mean inhibition at 5 nM, for monocytes, was 65% (range 50-80%, n=5) and was 50% (range 25-75%, n=5) for in vitro differentiated macrophages. Results are mean+/−SE of 3-5 experiments
Similar results were obtained when monocytes were stimulated with LPS (100 ng/ ml) and treated with ET743 and the other ecteinascidin compounds, although the overall inhibition was less marked compared with the previous experiment where the tumor supernantant was used as CCL2-inducing stimulus.
CCL2 and TNF production by LPS-stimulated monocytes treated with the indicated doses of the anti-tumor agents was also tested. Cell supernatants were harvested after 24 h-incubation and tested in ELISA. […] None of these compounds interfered with the production of TNF.
A major finding of our work is the inhibitory activity of ecteinascidin 743 on the production of inflammatory cytokines. Among various inflammatory cytokines produced by monocyte/macrophages we have tested IL-6, TNF and the chemokine CCL2. CCL2 is a chemokine attracting monocytes and other leukocyte subsets, and is produced both by monocyte/macrophages and several tumour cells. It has been described that ovarian adenocarcinoma cells produce huge amounts of CCL2 and that their levels correlate with the macrophage content of tumours. CCL2 is therefore one of the most important factors regulating monocyte/macrophages recruitment at the tumour site. […] Thus, lower levels of CCL2 by TAM and tumour cells are likely to reduce the number of macrophages recruited at the tumour site. In the above described in vitro experiments ecteinascidin 743 was present throughout the 16-h culture period. We also checked whether a shorter in vitro exposure to ecteinascidin 743 was sufficient to affect cytokine production. Monocytes exposed to ecteinascidin 743 were washed after 1 hour culture and replaced in fresh medium.

CCL2 [2] = test: CCL2 production induced by exposure of monocytes to tumor cell supernatants; format: cell-based, human
Experimental: We also tested five other ecteinascidin compounds (Table 2) for their capacity to inhibit the production of CCL2 by human monocytes in vitro. […] The extent of inhibition of ET637 Derivative A was even more pronouced compared to ET743. In Table 2 is shown that the production of CCL2, induced by exposure of monocytes to tumor cell supernatants, is inhibited up to 80% and 97% at 2.5 and 5 nM, respectively, in two different donors. In the same experiment ET743 inhibited between 30% and 70%.

blood monocytes = test: in vitro; details: 48 h
Experimental: Purified populations of human blood monocytes were prepared as previously described by differential density centrifugation on Ficoll and Percoll gradients (see Allavena, P., Piemonti, L., Longoni, D., Bernasconi, S., Stoppacciaro, A., Ruco, L., and Mantovani, A. IL-10 prevents the differentiation of monocytes to dendritic cells but promotes their maturation to macrophages. Eur J Immunol, 28: 359-369, 1998). […] Human thymocytes were isolated from resected thymus from pediatric patients undergoing surgery. Thymocytes were obtained by teasing and isolated on Percoll gradient.
Cells were cultured at 10^6 cells/ml in complete medium RPMI (Biochrom, Berlin, FRG)+10% FCS (Hyclone, Logan, Utah). In vitro differentiated macrophages were obtained by culture of monocytes Monocyte-Colony Stimulating Factor (M-CSF) Peprotech (20 ng/ml), for 5 days. In some experiments, macrophages were treated with LPS (100 ng/ml) Sigma Aldrich, IFN gamma (500 IU/ml) or IL-4 (20 ng/ml) (Schering Plough) for 24 h.
Cell viability was analyzed by DNA content in Flow Cytometry
Cells exposed to treatments were fixed with ethanol 70%, washed in PBS and stained with propidium iodide (PI) solution containing 10 ug/ml PI in PBS and 25 μl RNAse 10,000 units, overnight in the dark. PI incorporation was evaluated on at least 20,000 cells/sample using a FACS Calibur instrument (Becton Dickinson, Sunnyvale, Calif., USA), with a bandpass filter at 620 nm. Apoptosis was detected by staining with AnnexinV and PI. FACS analysis was performed using a bandpass filter 530 and 620 nm for green (AnnexinV) and red (PI) fluorescence respectively, in combination with a […] dichroic mirror.
Purified preparations of blood monocytes, lymphocytes and thymocytes were cultured with different concentrations of ecteinascidin 743 for 48 h. Cell viability was assessed by DNA analysis and propidium iodide (PI) staining in Flow cytometry.
A kinetics analysis of the cytotoxic effect of ecteinascidin 743 was performed in the presence of M-CSF. Cells were treated with M-CSF (20 ng/ml) and different concentrations of ecteinascidin 743. Samples were collected at the indicated times and tested for DNA analysis.
Viability was assessed by PI staining and analyzed by Flow Cytometry.

## COc1cccc2c1C(=O)c1c(O)c3c(c(O)c1C2=O)C[C@@](O)(C(=O)CO)C[C@@H]3O[C@H]1C[C@H](N)[C@H](O)[C@H](C)O1 [Doxorubicin, reference compound]
CCL2 [1]; indicated doses (FIG. 9B)
  effect on CCL2 production by LPS-stimulated monocytes: ineffective

## COc1c(C)cc2c(c1O)C1C3[C@@H]4SCC(=O)C(=O)OC[C@@H](c5c6c(c(C)c(OC(C)=O)c54)OCO6)N3[C@@H](O)[C@H](C2)N1C (some centres unmarked) [ET594]
CCL2 [2]; 5 nM
  % inhibition of CCL2 production, Donor A: 25%
CCL2 [2]; 10 nM
  % inhibition of CCL2 production, Donor A: 25%

## N.N.[Cl][Pt][Cl] [Cisplatin, reference compound]
CCL2 [1]; 10 μM
  effect on CCL2 production by LPS-stimulated monocytes: reduced CCL2 production
Blood monocytes; very high concentrations (40 μM)
  toxicity on monocytes: Significant toxicity

## CC(=O)O[C@H]1C(=O)[C@@]2(C)[C@H]([C@H](OC(=O)c3ccccc3)[C@]3(O)C[C@H](OC(=O)[C@H](O)[C@@H](NC(=O)c4ccccc4)c4ccccc4)C(C)=C1C3(C)C)[C@]1(OC(C)=O)CO[C@@H]1C[C@@H]2O [Taxol, reference compound]
CCL2 [1]; indicated doses (FIG. 9B)
  effect on CCL2 production by LPS-stimulated monocytes: ineffective
Blood monocytes; 300 nM
  toxicity on monocytes: ineffective

## COc1cc2c(cc1O)CCN[C@]21CS[C@@H]2c3c(OC(C)=O)c(C)c4c(c3[C@H](COC1=O)N1C[C@@H]3Cc5cc(C)c(OC)c(O)c5[C@H]([C@H]21)N3C)OCO4 [ET745]
CCL2 [2]; Homo sapiens, Monocyte, read-out: % inhibition of CCL2 production, Donor A
  inhibition at 0.005 µM: 23%

Source: patent US20080076772A1, “Anti-Inflammatory Agents” (Pharma Mar S.A. Sociedad Unipersonal, priority 2004, published 2008)
